According to patent US8648112B2, “Therapeutic uses of urolithins” (The Regents of the University of California, priority 2006, dated 2014):

Experiments:
[1] = test system: 22Rv1 prostate cancer cell line; test: Antiproliferative cell assay (CellTiter-Glo), 22Rv1; assay type: cell-based, human; conditions: Homo sapiens, 22Rv1, 48 h, 48 h exposure, read-out: IC50 against prostate cancer cell line 22 Rv1
Description: (§1) Cell Culture Materials. The 22Rv1, DU145, LNCaP and PC3 prostate cancer cell lines were obtained from American Type Culture Collection (ATCC, Rockville, Md.). The LNCaP-AR and Hi-Myc cell lines were a kind donation by Dr. C. Sawyers (David Geffen School of Medicine, UCLA, Los Angeles, Calif.). DU145, 22Rv1, LNCaP, LNCaP-AR, and PC3 cells were grown in RPMI 1640; Hi-Myc cells were grown in Isecove's Modified Dulbecco's Medium. All media contained 10% fetal bovine serum (FBS) in the presence of 100 U/mL penicillin and 0.1 g/L streptomycin. RWPE-1 prostate cells were grown in Defined Keratinocyte Serum Free Medium (DKSFM) containing epidermal growth factor (EGF), insulin and fibroblast growth factor (FGF). Cells were incubated at 37° C. with 95% air and 5% CO2. All cells were maintained below passage 20 and used in experiments during the linear phase of growth.
(§2) Proliferation was measured utilizing the CellTiter-Glo® Luminescent Cell Viability Assay (Technical Bulletin #288, Promega Corp., Madison, Wis.). When added to cells, the assay reagent produces luminescence in the presence of ATP from viable cells. Cells were plated in 96-well plates at a density of 10,000 cells/well and incubated for 24 hours. Test samples were solubilized in DMSO by sonication, filter sterilized and diluted with media to the desired treatment concentration. Cells were treated with 100 μLcontrol media, vehicle control (DMSO<0.2% of total) or test samples and incubated for 48 h drug exposure duration at 6.25, 12.5, 25, 50 and 100 μg/mL concentrations. At the end of 48 h, plates were equilibrated at room temperature for 30 min; 100 μL of the assay reagent was added to each well and cell-lysis was induced on an orbital shaker for 2 min. Plates were incubated at room temperature for 10 min to stabilize the luminescence signal and results were read on an Orion Microplate Luminometer (Bertholds Detection Systems, Pforzheim, Germany). All plates had control wells containing medium without cells to obtain a value for background luminescence. Data are expressed as percentage of untreated cells (i.e. treatment value-blank/vehicle value-blank), mean±SE for three replications.

[2] = test system: DU145 prostate cancer cell line; test: Antiproliferative cell assay (CellTiter-Glo), DU145; assay type: cell-based, human; conditions: Homo sapiens, DU-145, 48 h exposure, read-out: IC50 against prostate cancer cell line DU145
Description: as §1, §2

[3] = test system: Hi-Myc prostate cancer cell line; test: Antiproliferative cell assay (CellTiter-Glo), Hi-Myc; assay type: cell-based; conditions: Hi-Myc (mouse), 48 h exposure, read-out: IC50 against prostate cancer cell line HiMyc
Description: as §1, §2

[4] = test system: LNCaP prostate cancer cell line; test: Antiproliferative cell assay (CellTiter-Glo), LNCaP; assay type: cell-based, human; conditions: Homo sapiens, 48 h exposure, read-out: IC50 against prostate cancer cell line LNCaP
Description: as §1, §2

[5] = test system: LNCaP-AR prostate cancer cell line; test: Antiproliferative cell assay (CellTiter-Glo), LNCaP-AR; assay type: cell-based, human; conditions: Homo sapiens, 48 h exposure, read-out: IC50 against prostate cancer cell line LNCap-AR
Description: as §1, §2

[6] = test system: PC3 prostate cancer cell line; test: Antiproliferative cell assay (CellTiter-Glo), PC3; assay type: cell-based, human; conditions: Homo sapiens, 48 h exposure, read-out: IC50 against prostate cancer cell line PC3
Description: as §1, §2

22Rv1 cells = test: Assessment of apoptosis (Cell Death Detection ELISA), 22Rv1; assay type: cell-based, human; conditions: 48 h, p=0.05
Description: (§3) Assessment of apoptosis. Apoptosis was assessed utilizing the Cell Death Detection ELISAPLUS Assay (Boehringer Mannheim, Indianapolis, Ind.). This assay is a photometric enzyme-linked immunoassay that quantitatively measures the internucleosomal degradation of DNA, which occurs during apoptosis. Specifically, the assay detects histone associated mono- and oligonucleosomes, which are indicators of apoptosis. Cells (22RV1, PC-3, LNCaP, LNCaP-AR), were plated in 60 mm dishes at a density of 100,000 cells/dish and allowed to attach for 24 hours. Cells were treated with vehicle control (100% DMSO; 0.3% final concentration), or urolithin B (0-50 μg/mL or 0-236 μM) for 48 hours. Following treatments, non-adherent cells were collected and pelleted at 200×g for ten minutes. The supernatant was discarded; the cell pellet was washed with cold CMF-PBS and re-centrifuged. […] Both live and dead cells were then counted via trypan blue exclusion (Pierce, Rockford, Ill.) and equal numbers of cells were added to the microtiter plate for all treatment groups and apoptosis assay was performed according to the manufacturer's instructions. Data are expressed as absorbance at 405 nm of each sample over vehicle controls as follows=treatment value-blank/vehicle value-blank.

PC3 cells = test: Assessment of apoptosis (Cell Death Detection ELISA), PC3; assay type: cell-based, human; conditions: 48 h, p=0.05
Description: as §3

LNCaP cells = test: Assessment of apoptosis (Cell Death Detection ELISA), LNCaP; assay type: cell-based, human; conditions: 48 h, p=0.01
Description: as §3

LNCaP-AR cells = test: Assessment of apoptosis (Cell Death Detection ELISA), LNCaP-AR; assay type: cell-based, human; conditions: 48 h, p=0.01
Description: as §3

[7] = test system: human colon cancer cell line HCT-116; test: Antiproliferative activity against colon cancer cells (CellTiter-Glo); assay type: cell-based; conditions: 100 μg/mL, 48 hrs
Description: (§4) EA and EA-metabolites (gallic and gallagic acids, urolithin B and methylated-urolithin A) were evaluated for antiproliferative activity against the human colon cancer cell line HCT-116. The cells were grown to a concentration of 10,000 cells per well in a 96 well format; and were then resuspended in medium containing vehicle control or the indicated compound: Ellagic acid, urolithin A, methyl urolithin A, or urolithin B, at a concentration of 100 μg/mL. The cells were incubated for 48 hrs, and the viability assayed by the CellTiter-Glo® Luminescent Cell Viability Assay (Technical Bulletin #288, Promega Corp., Madison, Wis.).

[8] = test system: human pancreatic cancer cell line ASPC-1; test: Antiproliferative activity against pancreatic cancer cells (CellTiter-Glo), ASPC-1; assay type: cell-based; conditions: 100 μg/mL, 48 hrs
Description: as §4, with “pancreatic” for “colon”, “lines ASPC-1 and BXPC-3.” for “line HCT-116.”, “well;” for “well in a 96 well format;”, “containing the” for “containing”, “byCellTiter-Glo®” for “by the CellTiter-Glo®”

[9] = test system: human pancreatic cancer cell line BXPC-3; test: Antiproliferative activity against pancreatic cancer cells (CellTiter-Glo), BXPC-3; assay type: cell-based; conditions: 100 μg/mL, 48 hrs
Description: as §4, with “pancreatic” for “colon”, “lines ASPC-1 and BXPC-3.” for “line HCT-116.”, “well;” for “well in a 96 well format;”, “containing the” for “containing”, “byCellTiter-Glo®” for “by the CellTiter-Glo®”

- IC50 [1]: 118 µM
- IC50 [2]: 59.4 µM
- IC50 [3]: 59.9 µM
- IC50 [4]: 90.5 µM
- IC50 [5]: 28.5 µM
- IC50 [6]: 127 µM
Compound: O=c1oc2cc(O)ccc2c2ccccc12 [Urolithin B, 3-hydroxy-6H-dibenzo[b,d]pyran-6-one]
- concentration showing statistically significant pro-apoptotic effect (22Rv1 cells): 59 µM
- concentration showing statistically significant pro-apoptotic effect (PC3 cells): 29.5 µM
- concentration showing statistically significant pro-apoptotic effect (LNCaP cells): 118 µM
- concentration showing statistically significant pro-apoptotic effect (LNCaP-AR cells): 59 µM
- anti-proliferative activity, rank order [7]: urolithin A is the most active, then ellagic acid, urolithin B and methyl urolithin A
- anti-proliferative activity, rank order [8]: urolithin A is the most active, then ellagic acid, urolithin B and methyl urolithin A
- anti-proliferative activity, rank order [9]: urolithin A is the most active, then ellagic acid, urolithin B and methyl urolithin A
